Some test systems named below: CAKI-1 renal; CCRF-CEM leukemia; HCC-2998 colon; HL-60(TB) leukemia; HOP-62 NSCLC; MOLT-4 leukemia; NCI-H226 lung; RPMI-8226 leukemia; SK-MEL-5 melanoma; T-47D breast.
Common to all, as to experiment: growth of human tumour cells (NCI), 48 h

Structures are written as SMILES.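 Assay format: 96-well plates, 48-hour exposure. TGI is the concentration that stops growth completely.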

For the compound `COC(=O)CN(CC(=O)NCCCBr)C1CCCCC1N(CC(=O)OC)CC(=O)OC` (configuration not stated), the TGI in the test with CAKI-1 renal, with CCRF-CEM leukemia, in the test with HCC-2998 colon, in the test with HL-60(TB) leukemia, with HOP-62 NSCLC and in the test with MOLT-4 leukemia was greater than 100 µM in each case. The TGI in the test with NCI-H226 lung, with RPMI-8226 leukemia, with SK-MEL-5 melanoma and with T-47D breast was greater than 100 µM in each case.
Regarding `C[C@@]1(CCCCCCCCCCc2ccccc2)C[C@@]2(C)OC(=O)C[C@H]2OO1`, the TGI in the test with CAKI-1 renal was greater than 84.1 µM; in the test with CCRF-CEM leukemia, 3.34 µM; with HCC-2998 colon, 3.41 µM; in the test on HL-60(TB) leukemia, 35.8 µM; in the test on HOP-62 NSCLC, 35.3 µM; in the test on MOLT-4 leukemia, 2.88 µM. In addition, the TGI with NCI-H226 lung came out at 10.9 µM; with RPMI-8226 leukemia it was 5.36 µM; in the test on SK-MEL-5 melanoma, 2.26 µM; with T-47D breast, 7.32 µM.
Turning to `Cn1c(-c2ccc(-c3cc(-c4cccs4)c(-c4cccs4)n3C)cc2)cc(-c2cccs2)c1-c1cccs1`, the TGI in the test on CAKI-1 renal, in the test on CCRF-CEM leukemia, in the test with HCC-2998 colon, in the test on HL-60(TB) leukemia, in the test with HOP-62 NSCLC and with MOLT-4 leukemia was greater than 100 µM in each case. In addition, the TGI in the test with NCI-H226 lung, in the test on RPMI-8226 leukemia, in the test on SK-MEL-5 melanoma and with T-47D breast was greater than 100 µM in each case.
As to `c1coc(-c2nccc3c2[nH]c2ccccc23)c1`, the TGI in the test with CAKI-1 renal, with CCRF-CEM leukemia, in the test with HCC-2998 colon, with HL-60(TB) leukemia, in the test with HOP-62 NSCLC and in the test with MOLT-4 leukemia was greater than 100 µM in each case. For the same compound, the TGI with NCI-H226 lung was 95.8 µM; in the test with SK-MEL-5 melanoma, greater than 100 µM; in the test on T-47D breast, greater than 100 µM.
In the case of `CCOC(=O)/C=C/C(=O)O/C=C/[N+](=O)[O-]`, the TGI with CAKI-1 renal was 78.1 µM; in the test with CCRF-CEM leukemia, greater than 100 µM; in the test with HCC-2998 colon it was greater than 100 µM; in the test on HL-60(TB) leukemia, greater than 100 µM; in the test on HOP-62 NSCLC it was greater than 100 µM; in the test on MOLT-4 leukemia it was greater than 100 µM. Besides, the TGI in the test on NCI-H226 lung, with RPMI-8226 leukemia, with SK-MEL-5 melanoma and in the test on T-47D breast was greater than 100 µM throughout.
On to `COc1cccc2c1NC(=O)Cc1c-2[nH]c2ccccc12`, for which the TGI in the test on CAKI-1 renal, with CCRF-CEM leukemia, with HCC-2998 colon, in the test on HL-60(TB) leukemia, with HOP-62 NSCLC and in the test on MOLT-4 leukemia was greater than 100 µM throughout. For the same compound, the TGI in the test with NCI-H226 lung, with RPMI-8226 leukemia, with SK-MEL-5 melanoma and in the test on T-47D breast was greater than 100 µM throughout.
Turning to `CC(=O)C1=C(C)O[C@@H]2O[C@H](COCc3ccccc3)[C@@H](OCc3ccccc3)[C@H](O)[C@@H]2S1`, the TGI is greater than 100 µM in the test on CAKI-1 renal; 16.8 µM with CCRF-CEM leukemia; 39.7 µM in the test with HL-60(TB) leukemia; 46.2 µM in the test with HOP-62 NSCLC; 33.3 µM with MOLT-4 leukemia; 48.6 µM in the test on NCI-H226 lung. Also, the figures for the TGI in the test on RPMI-8226 leukemia, with SK-MEL-5 melanoma and with T-47D breast were 42.6 µM, 32.2 µM and 21.5 µM, respectively.
As for `Cn1c(-c2ccc[se]2)ccc1-c1ccc(C=O)[se]1`, the TGI is 0.738 µM with CAKI-1 renal; 14.1 µM in the test on CCRF-CEM leukemia; greater than 53.5 µM with HCC-2998 colon; greater than 100 µM in the test on HL-60(TB) leukemia; 35.3 µM in the test with HOP-62 NSCLC; greater than 100 µM with MOLT-4 leukemia. The TGI is 2.3 µM in the test with NCI-H226 lung, greater than 70.2 µM with RPMI-8226 leukemia, greater than 100 µM in the test on SK-MEL-5 melanoma and 12.4 µM in the test on T-47D breast.
Turning to `COc1cc(CC(C)=O)cc(OC)c1`, the TGI with CCRF-CEM leukemia was greater than 100 µM; with HCC-2998 colon it was greater than 100 µM; in the test with HL-60(TB) leukemia, 78.5 µM; in the test with HOP-62 NSCLC it was greater than 100 µM; in the test with MOLT-4 leukemia, 73.2 µM; in the test on NCI-H226 lung it was greater than 100 µM. The TGI with RPMI-8226 leukemia, in the test with SK-MEL-5 melanoma and in the test with T-47D breast was greater than 100 µM throughout.
On to `Cc1ccccc1NC(=O)Cc1csc(N/N=C2\NC(=O)/C(=C/c3cccc([N+](=O)[O-])c3)S2)n1`, for which the TGI in the test with CAKI-1 renal was 35.7 µM; in the test with HCC-2998 colon it was 27.3 µM; in the test on HL-60(TB) leukemia, 39.5 µM; in the test with HOP-62 NSCLC, 92.5 µM; in the test with MOLT-4 leukemia, greater than 100 µM; with NCI-H226 lung it was 39.1 µM. Moreover, the TGI was 64.8 µM in the test with SK-MEL-5 melanoma and 55.1 µM with T-47D breast.
As to `CC(C)NC(=O)OCc1c(COC(=O)NC(C)C)c(-c2ccc[n+](COC(=O)Cc3ccccc3)c2)n2c1CCC2`, the TGI in the test on CAKI-1 renal was 34 µM; with CCRF-CEM leukemia, greater than 100 µM; in the test on HCC-2998 colon it was greater than 100 µM; with HL-60(TB) leukemia, greater than 100 µM; in the test on HOP-62 NSCLC, greater than 100 µM; in the test on MOLT-4 leukemia it was greater than 100 µM. The TGI with NCI-H226 lung, in the test with RPMI-8226 leukemia, in the test on SK-MEL-5 melanoma and with T-47D breast was greater than 100 µM in each case.
As to `Fc1ccc(-c2sc(-c3ccsc3)cc2Cc2ccsc2)cc1`, the TGI with CAKI-1 renal, with CCRF-CEM leukemia, in the test with HCC-2998 colon, in the test with HL-60(TB) leukemia, in the test on HOP-62 NSCLC and in the test with MOLT-4 leukemia was greater than 10 µM each time. For the same compound, the TGI in the test on RPMI-8226 leukemia, in the test on SK-MEL-5 melanoma and with T-47D breast was greater than 10 µM each time.
In the case of `COc1ccc2c(c1)CC[C@@H]1C2CC[C@]2(C)C(=O)N(CCN(C)C)C(=O)CC12` (some centres not stated), the TGI in the test on CAKI-1 renal, with CCRF-CEM leukemia, in the test with HCC-2998 colon, in the test with HL-60(TB) leukemia, in the test on HOP-62 NSCLC and in the test on MOLT-4 leukemia was greater than 100 µM each time. Besides, the TGI in the test on NCI-H226 lung, in the test on SK-MEL-5 melanoma and in the test with T-47D breast was greater than 100 µM in each case.
Regarding `Cc1ccc(/C=C/C(=O)Oc2ccc(/C=C3\CCC/C(=C\c4ccc(OC(=O)/C=C/c5ccc(C)cc5)cc4)C3=O)cc2)cc1`, the TGI in the test on CAKI-1 renal, in the test on CCRF-CEM leukemia, in the test on HCC-2998 colon, with HL-60(TB) leukemia, with HOP-62 NSCLC and in the test on MOLT-4 leukemia was greater than 100 µM in each case. For the same compound, the TGI with RPMI-8226 leukemia, in the test with SK-MEL-5 melanoma and with T-47D breast was greater than 100 µM in each case.

(Values after PubChem BioAssay (NCI).)
